Tests used:
Assay type in all cases: cell-based
DP [1] = target: T1, DP (Homo sapiens, UniProt Q13258); assay: 3H-PGD2 competition binding, K562/DP cells
T1 sequence (Q13258 1-359): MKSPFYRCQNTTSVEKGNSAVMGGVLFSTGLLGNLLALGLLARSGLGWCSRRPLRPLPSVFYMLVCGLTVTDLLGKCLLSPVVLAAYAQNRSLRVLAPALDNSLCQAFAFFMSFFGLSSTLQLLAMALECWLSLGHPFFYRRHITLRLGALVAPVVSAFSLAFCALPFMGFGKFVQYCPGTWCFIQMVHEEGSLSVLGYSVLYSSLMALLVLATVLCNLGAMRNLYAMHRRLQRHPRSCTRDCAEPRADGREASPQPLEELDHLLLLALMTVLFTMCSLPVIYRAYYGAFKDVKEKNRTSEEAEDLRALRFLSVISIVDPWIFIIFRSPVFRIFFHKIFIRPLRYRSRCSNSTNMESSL

CRTH2 [2] = target: T2, CRTH2 (Homo sapiens, UniProt Q9Y5Y4); assay: 3H-PGD2 competition binding, K562/CRTH2 cells
T2 sequence (Q9Y5Y4 1-395): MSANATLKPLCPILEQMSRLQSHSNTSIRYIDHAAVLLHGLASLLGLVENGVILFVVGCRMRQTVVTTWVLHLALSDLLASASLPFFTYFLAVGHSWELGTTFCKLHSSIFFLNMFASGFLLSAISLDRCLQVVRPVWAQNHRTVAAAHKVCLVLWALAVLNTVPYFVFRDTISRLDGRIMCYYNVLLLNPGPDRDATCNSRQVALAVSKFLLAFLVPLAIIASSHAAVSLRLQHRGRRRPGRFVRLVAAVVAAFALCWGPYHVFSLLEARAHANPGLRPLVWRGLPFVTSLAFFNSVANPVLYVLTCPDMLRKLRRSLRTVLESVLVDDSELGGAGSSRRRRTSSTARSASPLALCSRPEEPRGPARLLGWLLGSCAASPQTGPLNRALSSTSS

CRTH2 [3] = target: T2, CRTH2; assay: 3H-PGD2 saturation binding
DP [4] = target: T1, DP; assay: 3H-PGD2 saturation binding

| Structure (SMILES) | Ki (DP [1]) | Ki (CRTH2 [2]) | Kd (CRTH2 [3]) | Kd (DP [4]) |
| --- | --- | --- | --- | --- |
| CCCCC/C=C/C=C1/C(=O)C=C[C@@H]1C/C=C\CCCC(=O)O [15-deoxy-Δ^12,14-PGJ2] | > 30000 nM | 2300 nM | – | – |
| CCCCC[C@H](O)/C=C/[C@H]1C(=O)C[C@H](O)[C@@H]1C/C=C\CCCC(=O)O [PGD2] | 45 ± 17 nM | 61 ± 23 nM | 31.3 nM | 37.7 nM |
| CCCCCC(=O)CC[C@H]1C(=O)C[C@H](O)[C@@H]1C/C=C\CCCC(=O)O [DK-PGD2, 13,14-dihydro-15-keto-PGD2] | > 30000 nM | 160 ± 35 nM | – | – |
| CCCCC[C@H](O)/C=C/[C@H]1C(=O)C[C@H](O)[C@@H]1C/C=C\CCCC(=O)OC [PGD2 methyl ester] | 270 ± 46 nM | 460 ± 120 nM | – | – |
| CCCCC[C@H](O)/C=C/[C@@H]1[C@@H](C/C=C\CCCC(=O)O)[C@@H](O)C[C@@H]1O [11β-PGF2α] | 1200 nM | 20000 nM | – | – |
| CCCCC[C@H](O)/C=C/[C@@H]1[C@@H](C/C=C\CCCC(=O)O)[C@@H](O)C[C@H]1O [PGF2α] | > 30000 nM | 2000 nM | – | – |
| CCCCC[C@H](O)C/C=C1/C(=O)C=C[C@@H]1C/C=C\CCCC(=O)O [Δ^12-PGJ2] | 5200 nM | 7100 nM | – | – |
| CCCCC[C@H](O)/C=C/[C@H]1C(=O)C=C[C@@H]1C/C=C\CCCC(=O)O [PGJ2] | 64 ± 13 nM | 460 ± 160 nM | – | – |
| O=C(O)CCCCCC[C@H]1C(=O)NC(=O)N1CC[C@@H](O)C1CCCCC1 [BW245C] | 50 ± 20 nM | > 100000 nM | – | – |

Results, then the compound that gave them:

| Ki (DP [1]) | Ki (CRTH2 [2]) | Kd (CRTH2 [3]) | Kd (DP [4]) | Structure (SMILES) |
| --- | --- | --- | --- | --- |
| > 30000 nM | > 30000 nM | – | – | CCCCC[C@H](O)/C=C/C=C\C=C\C=C\[C@@H](O)[C@@H](O)CCCC(=O)O [LXA4] |
| > 30000 nM | > 30000 nM | – | – | CCCCC/C=C\C[C@@H](O)/C=C/C=C/C=C\[C@@H](O)CCCC(=O)O [LTB4] |
| > 30000 nM | > 30000 nM | – | – | CCCCC[C@H](O)/C=C/[C@H]1C=CC(=O)[C@@H]1C/C=C\CCCC(=O)O [PGA2] |
| 2300 nM | 3100 nM | – | – | CCCCC[C@H](O)/C=C/[C@H]1[C@H](O)CC(=O)[C@@H]1C/C=C\CCCC(=O)O [PGE2] |
| > 30000 nM | > 30000 nM | – | – | CCCCC[C@H](O)/C=C/[C@@H]1[C@@H](C/C=C\CCCC(=O)O)[C@H]2CO[C@@H]1C2 [U46619] |
